# Measured values published in ChEMBL document CHEMBL3045536, “Prediction of antimalarial activity of some cyclic peroxy ketals using physico-chemical and topological indices” (2012).
# Tested on: Plasmodium falciparum
# Assay: Antimalarial activity against Plasmodium falciparum
# Type: functional
row,Structure (SMILES),logIC50
1,COc1ccc(C2(OC)C=CC(C3CCCCC3)(C3CCCCC3)OC2)cc1 (centres undefined),2.255
2,COc1ccc(C2(OC)C=CC(C3CCCCCC3)(C3CCCCCC3)OC2)cc1 (centres undefined),2.322
3,COc1cc(C2(OC)C=CC(C3CCCCCC3)(C3CCCCCC3)OC2)cc(OC)c1OC (centres undefined),2.079
4,COC1(c2ccc(OC(F)(F)F)cc2)C=CC(C2CCCCCC2)(C2CCCCCC2)OC1 (centres undefined),1.785
5,COC1(c2ccc(Cl)cc2)C=CC(C2CCCCCC2)(C2CCCCCC2)OC1 (centres undefined),1.763
6,COC1(c2ccc(F)cc2)C=CC(C2CCCCCC2)(C2CCCCCC2)OC1 (centres undefined),1.929
7,COC1(c2ccc(SC)cc2)C=CC(C2CCCCCC2)(C2CCCCCC2)OC1 (centres undefined),1.892
8,COC1(c2ccc(S(C)(=O)=O)cc2)C=CC(C2CCCCCC2)(C2CCCCCC2)OC1 (centres undefined),1.491
9,CCc1ccc(C2(OC)C=CC(C3CCCCCC3)(C3CCCCCC3)OC2)cc1 (centres undefined),2.255
10,COC1(c2ccc(SC)cc2)C=CC(C2CCCCC2)(C2CCCCC2)OC1 (centres undefined),2.204
11,COC1(c2ccc(S(C)(=O)=O)cc2)C=CC(C2CCCCC2)(C2CCCCC2)OC1 (centres undefined),1.748
12,COC1(c2ccc([N+](=O)[O-])cc2)C=CC(C2CCCCC2)(C2CCCCC2)OC1 (centres undefined),1.663
13,COC1(c2ccc(Cl)cc2)C=CC(C2CCCCC2)(C2CCCCC2)OC1 (centres undefined),2
14,COC1(c2ccc(F)cc2)C=CC(C2CCCCC2)(C2CCCCC2)OC1 (centres undefined),2.301
15,COC1(c2ccc(C(F)(F)F)cc2)C=CC(C2CCCCC2)(C2CCCCC2)OC1 (centres undefined),2.146
16,COC1(c2ccccc2)C=CC(C)(C)OC1 (centres undefined),3.041
17,COC1(c2ccccc2)C=CC(C2CCCC2)(C2CCCC2)OC1 (centres undefined),2.279
18,COC1(c2ccccc2)C=CC(C2CCCCC2)(C2CCCCC2)OC1 (centres undefined),2.447
19,COC1(c2ccccc2)C=CC(C2CCCCCC2)(C2CCCCCC2)OC1 (centres undefined),2.342
